Counter-ions that a name gives are not always drawn. Like-named read-outs stand apart in the source and are kept apart here.
Tested on: E. coli ATCC 25922
Experiment: Phototoxicity test c.1) (LED array 430-435 nm, CFU count by Miles and Misra)
Assay type: cell-based, Escherichia coli
Settings: Escherichia coli, ATCC25922, light or radiation study; for log reduction at 10 µM: read-out: Effectiveness against E. Coli: Reduction in CFU in log10 at concentration of 10 μM; for log reduction at 50 µM: read-out: Effectiveness against E. Coli: Reduction in CFU in log10 at concentration of 50 μM
Experimental: A sample of the bacterial cell Staphylococcus. aureus (ATCC number: 25923) or Escherichia. coli (ATCC number: 25922) was removed from a cryo-freeze culture and cultured under aerobic conditions at 37° C. and 175 rpm overnight in an orbital shaker (MAXQ4000, Thermo Scientific, Dubuque, Iowa, USA). Growth was carried out in 20 mL Todd-Hewitt broth (Carl Roth, Karlsruhe, Germany) supplemented with 0.3% of yeast extract (AppliChem, Darmstadt, Germany).
Subsequently, dilutions (0, 5, 10, […] and 20% v/v of the overnight culture) and their absorptions were measured at 600 nm in triplicate for 100 μL (Infinite 200 M Pro, Tecan, Mannedorf, Switzerland). A calibration graph (Microsoft Excel) was used to calculate the volume which was required to produce 20 mL of a culture with an absorption of 0.05 at 600 nm. The volume calculated for the overnight culture was topped up with Todd-Hewitt broth (composition as above) to 20 mL and incubated for two hours at 37° C. with constant movement (175 rpm, MAXQ4000). The cultures were then in the exponential growth phase; the absorption at 600 nm was between 0.3 and 0.45.
A 2-hour culture was divided into 1800 μL aliquots. After centrifuging at 20° C., 830 rcf, 5 min (5417R centrifuge, Eppendorf, Hamburg, Germany), the pellets were re-suspended in phosphate buffer (Dulbeccos' Modified Phosphate Saline, DPBS, Sigma-Aldrich) with either 10 or 50 μM of the corresponding photosensitizer, wherein the final volume was kept at 1800 μL.
The solutions obtained were immediately incubated on the orbital shaker (see above for parameters) for 5 or 25 minutes.
Three controls were run at the same time for each photosensitizer. The “light only” control contained DPBS without photosensitizer. The “photosensitizer only” (“PS only”) control was incubated like the PDI samples, but not irradiated and kept strictly in darkness. A further control (double negative, “Co−/−”), received neither light nor photosensitizer.
After the incubation, duplicates of the samples (500 μL each) were transferred into a 24-well microtitre plate (Cellstar, Greiner Bio-One, Frickenhausen, Germany). The “PS only” and “Co −/−” samples were placed in their own microtitre plate which was packed in aluminium foil so as to be lightproof.
The irradiation was carried out under constant shaking (MTS4, IKA, Staufen, Germany, 175 rpm) from below on a LED array with maximum homogeneity of the lighting surface. All of the controls were shaken in the same manner. The technical data for the light source are shown in Table 2; the total dose of light applied was 33.8 J/cm^2.
The determination of the colony forming units (CFU) was carried out in accordance with the method published by Miles and Misra (Miles, A A; Misra, S S, Irwin, J O (1938 Nov.). “The estimation of the bactericidal power of the blood” The Journal of hygiene 38 (6): 732-49). In this regard, serial dilutions (1:10) of the corresponding bacterial suspension were produced in DPBS. 5×10 μL of each bacterial dilution was then dripped onto Todd-Hewitt plates (with broth, additional 1.5% agar (Agar-Agar, Kobe I, Roth, Karlsruhe, Germany) and incubated at 37° C. for 24 h. Next, the number of surviving colony forming units was determined. All of the tests were carried out four times.
The photosensitizers were tested against the bacterial strain E. coli ATCC 25922. FIGS. 1-20 show the measured surviving colony forming units (CFU).
The average reference control (arithmetic mean with standard deviation) (no light, no PS) was 3.6×10^8/mL. The logarithmic reduction after illumination is shown with respect to the reference control. The respective upper value, indicated by a *, refers to an incubation period of 5 min and the respectively lower value, indicated by a #, refers to an incubation period of 25 min.

[1] = 5 min, 10 μM, incubation period 5 min (upper value, *), light dose 33.8 J/cm^2, approx. 435 nm, 60 min at 9.4 mW/cm^2, vs reference control
[2] = 5 min, 50 μM, incubation period 5 min (upper value, *), light dose 33.8 J/cm^2, approx. 435 nm, 60 min at 9.4 mW/cm^2, vs reference control
[3] = 25 min, 10 μM, incubation period 25 min (lower value), light dose 33.8 J/cm^2, approx. 435 nm, 60 min at 9.4 mW/cm^2, vs reference control
[4] = 25 min, 50 μM, incubation period 25 min (lower value), light dose 33.8 J/cm^2, approx. 435 nm, 60 min at 9.4 mW/cm^2, vs reference control

| Structure (SMILES) | log reduction at 10 µM [1] | log reduction at 50 µM [2] | log reduction at 10 µM [3] | log reduction at 50 µM [4] | log reduction at 10 µM (5 min) | log reduction at 50 µM (5 min) | log reduction at 10 µM (25 min) | log reduction at 50 µM (25 min) |
| --- | --- | --- | --- | --- | --- | --- | --- | --- |
| NCCOc1ccc(/C=C/C(=O)CC(=O)/C=C/c2ccc(OCCN)cc2)cc1 [Curcumin 0 hydrochloride] | > 4 | > 6 | > 5 | > 6 |  |  |  |  |
| COc1cc(OCCN)ccc1/C=C/C(=O)CC(=O)/C=C/c1ccc(OCCN)cc1OC [Curcumin 01b hydrochloride] | > 2 | > 5 | > 3 | > 7 |  |  |  |  |
| COc1cc(/C=C/C(=O)CC(=O)/C=C/c2cc(I)c(OCCN)c(OC)c2)cc(I)c1OCCN [Curcumin 01c hydrochloride] | > 2 | > 3 | > 2 | > 4 |  |  |  |  |
| Cc1cc(/C=C/C(=O)CC(=O)/C=C/c2ccc(OCCN)c(C)c2)ccc1OCCN [Curcumin 01e hydrochloride] | > 5 | > 4 | > 5 | > 7 |  |  |  |  |
| COc1cc(/C=C/C(=O)CC(=O)/C=C/c2ccc(OCCOCCN)c(OC)c2)ccc1OCCOCCN [Curcumin 02 hydrochloride] | > 2 | > 6 | > 4 | > 7 |  |  |  |  |
| NCCCOc1ccc(/C=C/C(=O)CC(=O)/C=C/c2ccc(OCCCN)c(OCc3ccccc3)c2)cc1OCc1ccccc1 [Curcumin 04 hydrochloride] | > 1 | > 3 | > 3 | > 4 |  |  |  |  |
| NCCOc1cc(/C=C/C(=O)CC(=O)/C=C/c2cc(OCCN)c(OCCN)c(OCCN)c2)cc(OCCN)c1OCCN [Curcumin 05 hydrochloride] | > 4 | > 7 | > 4 | > 6 |  |  |  |  |
| NCCOc1cc(/C=C/C(=O)CC(=O)/C=C/c2ccc(OCCOCCOCCO)c(OCCN)c2)ccc1OCCOCCOCCO [Curcumin 08 hydrochloride] |  | ~1 |  | > 1 |  |  |  |  |
| COc1cc(/C=C/C(=O)C2CCC/C(=C\c3ccc(OCCN)c(OC)c3)C2=O)ccc1OCCN (stereo not shown) [Curcumin 09b hydrochloride] |  | > 1 |  | > 2 |  |  |  |  |
| COc1cc(/C=C/C(=O)CC(=O)/C=C/c2ccc(OCCC[N+](C)(C)C)c(OC)c2)ccc1OCCC[N+](C)(C)C [Curcumin 10a hydrochloride, 3,3′-(4,4′-((1E,6E)-3,5-dioxohepta-1,6-diene-1,7-diyl)bis(2-methoxy-4,1-phenylene))bis(oxy)bis(N,N,N-trimethylpropan-1-aminium) chloride] |  |  |  |  | > 1 | > 5 | > 1 | > 5 |
| COc1cc(/C=C/C(=O)CC(=O)/C=C/c2ccc(OCCNC(=N)N)c(OC)c2)ccc1OCCNC(=N)N [Curcumin 10b hydrochloride] | > 5 | > 7 | > 4 | > 6 |  |  |  |  |
| COc1cc(/C=C/C(=O)CC(=O)/C=C/c2ccc(OCCC[n+]3ccccc3)c(OC)c2)ccc1OCCC[n+]1ccccc1 [Curcumin 10c hydrochloride, 1,1′-(3,3′-(4,4′-((1E,6E)-3,5-dioxohepta-1,6-diene-1,7-diyl)bis(2-methoxy-4,1-phenylene))bis(oxy)bis(propane-3,1-diyl))dipyridinium chloride] | > 4 | > 7 | > 5 | > 7 |  |  |  |  |
| COc1ccc(/C=C/C(=O)CC(=O)/C=C/c2ccc(OCCN)c(OC)c2)cc1OC [Curcumin 11b hydrochloride] | ~1 | ~3 | > 1 | > 3 |  |  |  |  |
| NCCOc1ccc(/C=C/C(=O)CC(=O)/C=C/c2ccc(OCCN)c3ccccc23)c2ccccc12 [Curcumin 12a hydrochloride] | > 1 | > 6 | > 4 | > 6 |  |  |  |  |

Reference: US11191855B2, “1,7-diaryl-1,6-heptadiene-3,5-dione derivatives, methods for the production and use thereof” (UNIVERSITÄTSKLINIKUM REGENSBURG, priority 2015, dated 2021)
